# From patent US20250205344A1, “2,4-DIOXOTETRAHYDROPYRIMIDINYL DERATIVES AS DEGRONS IN PROTACS” (GLAXOSMITHKLINE INTELLECTUAL PROPERTY DEVELOPMENT LIMITED, priority 2022, published 2025)
# Where a name gives a salt, the structure may show the parent alone.
# Biological target: T1, Androgen Receptor (Homo sapiens, UniProt P10275, T878A)
# T1 construct: the AR gene was modified, using CRISPR/Cas9 editing, so the expressed AR protein included an 11 amino acid HiBiT tag; endogenous in cells; host or cells: clonal LnCaP-derived line, AR gene edited by CRISPR/Cas9
# Assay: Androgen Receptor Degradation Assay (Nano-Glo HiBiT)
# Type: cell-based
# Conditions: HiBiT-tagged AR in human LnCaP cells, 18 h
# In short: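 LnCaP cells with CRISPR-knocked-in N-terminal HiBiT-tagged AR (10,000/well) treated 18 h at 37 °C with PROTACs over 11 threefold concentrations; lytic HiBiT luminescence normalised to DMSO (0%) and cell-free (100%) controls. Relative DC50 = 4-parameter fit inflection; absolute DC50 = 50% degradation interpolation; Dmax = maximum observed degradation.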
# T1 sequence (P10275 whole entry T878A): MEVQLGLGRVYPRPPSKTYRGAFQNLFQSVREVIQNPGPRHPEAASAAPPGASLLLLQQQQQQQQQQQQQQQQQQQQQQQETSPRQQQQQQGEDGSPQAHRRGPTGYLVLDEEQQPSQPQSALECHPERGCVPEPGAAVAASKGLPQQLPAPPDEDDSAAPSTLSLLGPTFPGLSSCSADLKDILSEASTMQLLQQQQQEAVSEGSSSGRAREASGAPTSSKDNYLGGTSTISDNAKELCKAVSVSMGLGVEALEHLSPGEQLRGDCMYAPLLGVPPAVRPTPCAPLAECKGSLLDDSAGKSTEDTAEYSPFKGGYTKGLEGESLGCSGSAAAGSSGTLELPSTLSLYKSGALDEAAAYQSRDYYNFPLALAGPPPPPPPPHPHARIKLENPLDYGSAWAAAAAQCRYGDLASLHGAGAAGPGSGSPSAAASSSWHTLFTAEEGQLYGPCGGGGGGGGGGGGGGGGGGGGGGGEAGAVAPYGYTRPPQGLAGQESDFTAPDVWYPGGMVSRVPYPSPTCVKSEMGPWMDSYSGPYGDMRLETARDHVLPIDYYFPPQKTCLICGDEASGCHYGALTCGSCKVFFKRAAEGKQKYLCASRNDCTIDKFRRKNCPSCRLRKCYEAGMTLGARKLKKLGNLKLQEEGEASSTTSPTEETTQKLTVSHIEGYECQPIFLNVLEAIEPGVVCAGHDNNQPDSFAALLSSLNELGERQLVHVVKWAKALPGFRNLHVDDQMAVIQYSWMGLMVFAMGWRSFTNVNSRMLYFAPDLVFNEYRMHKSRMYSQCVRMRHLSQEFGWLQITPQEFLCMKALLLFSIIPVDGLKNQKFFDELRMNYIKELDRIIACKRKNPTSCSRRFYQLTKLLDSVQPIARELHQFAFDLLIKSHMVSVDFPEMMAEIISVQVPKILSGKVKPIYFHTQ
# T1 sequence (Q96SW2 whole entry partner): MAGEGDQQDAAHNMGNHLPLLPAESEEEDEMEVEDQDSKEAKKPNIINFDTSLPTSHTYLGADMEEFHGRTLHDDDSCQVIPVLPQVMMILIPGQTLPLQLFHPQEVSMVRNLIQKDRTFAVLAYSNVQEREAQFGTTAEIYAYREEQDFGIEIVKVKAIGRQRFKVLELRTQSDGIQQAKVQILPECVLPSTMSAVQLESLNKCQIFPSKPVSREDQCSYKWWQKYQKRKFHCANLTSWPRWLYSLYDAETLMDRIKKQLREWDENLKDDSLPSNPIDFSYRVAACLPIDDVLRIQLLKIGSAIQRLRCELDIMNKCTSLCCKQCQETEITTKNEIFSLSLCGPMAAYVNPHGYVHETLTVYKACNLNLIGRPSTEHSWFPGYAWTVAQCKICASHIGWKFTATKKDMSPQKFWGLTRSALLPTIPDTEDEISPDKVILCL
# T1 sequence (Q16531 whole entry partner): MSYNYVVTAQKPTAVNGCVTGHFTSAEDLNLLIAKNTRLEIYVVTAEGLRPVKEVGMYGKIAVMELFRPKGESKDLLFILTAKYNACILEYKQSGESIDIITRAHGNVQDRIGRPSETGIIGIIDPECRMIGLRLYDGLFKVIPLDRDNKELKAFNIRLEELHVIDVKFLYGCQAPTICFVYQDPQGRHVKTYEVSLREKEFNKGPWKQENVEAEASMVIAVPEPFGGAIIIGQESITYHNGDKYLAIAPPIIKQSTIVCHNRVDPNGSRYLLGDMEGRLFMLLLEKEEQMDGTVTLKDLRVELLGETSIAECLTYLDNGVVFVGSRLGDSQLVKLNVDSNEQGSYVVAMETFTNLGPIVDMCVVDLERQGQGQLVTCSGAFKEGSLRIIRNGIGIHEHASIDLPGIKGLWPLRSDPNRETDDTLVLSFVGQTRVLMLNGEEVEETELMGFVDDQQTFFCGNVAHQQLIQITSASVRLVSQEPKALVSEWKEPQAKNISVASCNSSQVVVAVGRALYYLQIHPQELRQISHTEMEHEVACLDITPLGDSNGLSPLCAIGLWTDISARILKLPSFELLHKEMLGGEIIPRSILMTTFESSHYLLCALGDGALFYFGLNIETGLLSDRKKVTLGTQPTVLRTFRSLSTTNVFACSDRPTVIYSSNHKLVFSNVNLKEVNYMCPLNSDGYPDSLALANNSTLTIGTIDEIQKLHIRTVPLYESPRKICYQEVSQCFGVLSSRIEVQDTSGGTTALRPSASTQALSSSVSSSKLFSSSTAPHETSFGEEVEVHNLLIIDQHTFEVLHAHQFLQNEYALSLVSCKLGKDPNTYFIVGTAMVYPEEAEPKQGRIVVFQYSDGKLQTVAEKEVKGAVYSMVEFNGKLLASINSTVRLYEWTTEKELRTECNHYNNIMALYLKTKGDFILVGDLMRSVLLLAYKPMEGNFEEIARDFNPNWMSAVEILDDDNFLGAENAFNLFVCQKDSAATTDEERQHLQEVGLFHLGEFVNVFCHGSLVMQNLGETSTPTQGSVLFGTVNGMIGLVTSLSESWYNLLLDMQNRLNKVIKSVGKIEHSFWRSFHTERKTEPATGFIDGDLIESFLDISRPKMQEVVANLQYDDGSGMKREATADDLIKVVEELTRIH
row,Structure (SMILES),mean relative pDC50
1,"C[C@@H]1CN(C(=O)Nc2ccc(N3CCC(CCN4CCC(n5ncc6c(N7CCC(=O)NC7=O)cncc65)CC4)CC3)nc2)[C@@H](C)CN1c1ccc(C#N)c(Cl)c1.O=CO [EAR133, (2S,5R)-4-(3-Chloro-4-cyanophenyl)-N-(6-(4-(2-(4-(4-(2,4-dioxotetrahydropyrimidin-1(2H)-yl)-1H-pyrazolo[3,4-c]pyridin-1-yl)piperidin-1-yl)ethyl)piperidin-1-yl)pyridin-3-yl)-2,5-dimethylpiperazine-1-carboxamide, formic acid salt]",5.94

# Same assay, conditions: LNCaP, 18 h, HiBiT-tagged AR in human LnCaP cells, read-out: mean asymptote max
row,Structure (SMILES),Dmax
1,"N#Cc1ccc(O[C@H]2CC[C@H](NC(=O)c3ccc(N4CCC(CN5CCC(n6ccc7c(N8CCC(=O)NC8=O)cccc76)CC5)CC4)nc3)CC2)cc1C(F)(F)F [AR12, N-((1r,4r)-4-(4-Cyano-3-(trifluoromethyl)phenoxy)cyclohexyl)-6-(4-((4-(4-(2,4-dioxotetrahydropyrimidin-1(2H)-yl)-1H-indol-1-yl)piperidin-1-yl)methyl)piperidin-1-yl)nicotinamide]",≥ 50%
2,"N#Cc1ccc(O[C@H]2CC[C@H](NC(=O)c3cccc(OC4CCN(C(=O)CN5CCC(n6ccc7c(N8CCC(=O)NC8=O)cccc76)CC5)CC4)c3)CC2)cc1Cl [AR2, N-((1r,4r)-4-(3-Chloro-4-cyanophenoxy)cyclohexyl)-3-((1-(2-(4-(4-(2,4-dioxotetrahydropyrimidin-1(2H)-yl)-1H-indol-1-yl)piperidin-1-yl)acetyl)piperidin-4-yl)oxy)benzamide]",≥ 50%
3,"CC(C)n1ccc2c(N3CCC(=O)NC3=O)cc(C(=O)N(C)CC3CCN(CCCOc4ccc(N5C(=S)N(c6ccc(C#N)c(C(F)(F)F)c6)C(=O)C5(C)C)cc4)CC3)cc21 [EAR93, N-((1-(3-(4-(3-(4-Cyano-3-(trifluoromethyl)phenyl)-5,5-dimethyl-4-oxo-2-thioxoimidazolidin-1-yl)phenoxy)propyl)piperidin-4-yl)methyl)-4-(2,4-dioxotetrahydropyrimidin-1(2H)-yl)-1-isopropyl-N-methyl-1H-indole-6-carboxamide formate]",≥ 50%
4,"CN(c1ccc(C#N)c(Cl)c1)[C@H]1CC[C@H](NC(=O)c2ccc(N3CCC(CN4CCC(n5ccc6c(N7CCC(=O)NC7=O)cccc65)CC4)CC3)nn2)CC1 [EAR157, N-((1r,4r)-4-((3-Chloro-4-cyanophenyl)(methyl)amino)cyclohexyl)-6-(4-((4-(4-(2,4-dioxotetrahydropyrimidin-1(2H)-yl)-1H-indol-1-yl)piperidin-1-yl)methyl)piperidin-1-yl)pyridazine-3-carboxamide]",≥ 50%
5,"N#Cc1ccc(O[C@H]2CC[C@H](NC(=O)c3ccc(N4CCC(CN5CCC(n6ncc7c(N8CCC(=O)NC8=O)cncc76)CC5)CC4)nn3)CC2)cc1Cl [EAR53, N-((1r,4r)-4-(3-Chloro-4-cyanophenoxy)cyclohexyl)-6-(4-((4-(4-(2,4-dioxotetrahydropyrimidin-1(2H)-yl)-1H-pyrazolo[3,4-c]pyridin-1-yl)piperidin-1-yl)methyl)piperidin-1-yl)pyridazine-3-carboxamide hydrochloride]",≥ 50%
6,"CC(C1CCN(c2ccc(C(=O)N[C@H]3CC[C@H](Oc4ccc(C#N)c(Cl)c4)CC3)nn2)CC1)N1CCC(n2ccc3c(N4CCC(=O)NC4=O)cncc32)CC1 (stereo partly shown) [EAR135, N-((1r,4r)-4-(3-Chloro-4-cyanophenoxy)cyclohexyl)-6-(4-(1-(4-(4-(2,4-dioxotetrahydropyrimidin-1(2H)-yl)-1H-pyrrolo[2,3-c]pyridin-1-yl)piperidin-1-yl)ethyl)piperidin-1-yl)pyridazine-3-carboxamide]",≥ 50%
7,"C[C@@H]1CN(C(=O)Nc2ccc(N3CCC(CCN4CCC(n5ncc6c(N7CCC(=O)NC7=O)cncc65)CC4)CC3)nc2)[C@@H](C)CN1c1ccc(C#N)c(Cl)c1.O=CO [EAR133, (2S,5R)-4-(3-Chloro-4-cyanophenyl)-N-(6-(4-(2-(4-(4-(2,4-dioxotetrahydropyrimidin-1(2H)-yl)-1H-pyrazolo[3,4-c]pyridin-1-yl)piperidin-1-yl)ethyl)piperidin-1-yl)pyridin-3-yl)-2,5-dimethylpiperazine-1-carboxamide, formic acid salt]",≥ 50%
8,"CC1(C)[C@H](NC(=O)c2cnc(N3CCC(CN4CCC(n5ccc6c(N7CCC(=O)NC7=O)cccc65)CC4)CC3)cn2)C(C)(C)[C@H]1Oc1ccc(C#N)c(Cl)c1 [AR8, N-((1r,3r)-3-(3-Chloro-4-cyanophenoxy)-2,2,4,4-tetramethylcyclobutyl)-5-(4-((4-(4-(2,4-dioxotetrahydropyrimidin-1(2H)-yl)-1H-indol-1-yl)piperidin-1-yl)methyl)piperidin-1-yl)pyrazine-2-carboxamide]",≥ 50%
9,"CC(C)n1ccc2c(N3CCC(=O)NC3=O)cc(C(=O)N3CCN(CCCCOc4ccc(N5C(=S)N(c6ccc(C#N)c(C(F)(F)F)c6)C(=O)C5(C)C)cc4)CC3)cc21 [EAR92, 4-(3-(4-(4-(4-(4-(2,4-Dioxotetrahydropyrimidin-1(2H)-yl)-1-isopropyl-1H-indole-6-carbonyl)piperazin-1-yl)butoxy)phenyl)-4,4-dimethyl-5-oxo-2-thioxoimidazolidin-1-yl)-2-(trifluoromethyl)benzonitrile]",≥ 50%

# Next, values leading:
row,Dmax,Structure (SMILES)
1,≥ 50%,"CC1(C)[C@H](NC(=O)c2ncc(N3CCC(CN4CCC(n5ccc6c(N7CCC(=O)NC7=O)ccnc65)CC4)CC3)cn2)C(C)(C)[C@H]1Oc1cnc(C#N)c(Cl)c1 [EAR269, N-((1r,3r)-3-((5-Chloro-6-cyanopyridin-3-yl)oxy)-2,2,4,4-tetramethylcyclobutyl)-5-(4-((4-(4-(2,4-dioxotetrahydropyrimidin-1(2H)-yl)-1H-pyrrolo[2,3-b]pyridin-1-yl)piperidin-1-yl)methyl)piperidin-1-yl)pyrimidine-2-carboxamide]"
2,≥ 50%,"N#Cc1ccc(O[C@H]2CC[C@H](NC(=O)c3ccc(N4CCC(CN5CC[C@H](n6ccc7c(N8CCC(=O)NC8=O)cccc76)C5)CC4)nn3)CC2)cc1Cl [EAR171, N-((1r,4r)-4-(3-Chloro-4-cyanophenoxy)cyclohexyl)-6-(4-(((R)-3-(4-(2,4-dioxotetrahydropyrimidin-1(2H)-yl)-1H-indol-1-yl)pyrrolidin-1-yl)methyl)piperidin-1-yl)pyridazine-3-carboxamide, hydrochloride]"
3,≥ 50%,"N#Cc1ccc(O[C@H]2CC[C@H](NC(=O)c3ccc(N4CCC[C@H](CN5CCC(n6ncc7c(N8CCC(=O)NC8=O)cccc76)CC5)C4)nn3)CC2)cc1Cl (single isomer, unassigned) [EAR136]"
4,≥ 50%,"N#Cc1ccc(O[C@H]2CC[C@H](NC(=O)c3ccc(N4CCC(CN5CCC[C@@H](n6ccc7c(N8CCC(=O)NC8=O)cccc76)C5)CC4)nn3)CC2)cc1Cl [EAR184, N-((1r,4r)-4-(3-Chloro-4-cyanophenoxy)cyclohexyl)-6-(4-(((S)-3-(4-(2,4-dioxotetrahydropyrimidin-1(2H)-yl)-1H-indol-1-yl)piperidin-1-yl)methyl)piperidin-1-yl)pyridazine-3-carboxamide hydrochloride]"
5,≥ 50%,"N#Cc1ccc(O[C@H]2CC[C@H](NC(=O)c3ccc(N4CCC(CN5CCC(n6ccc7c(N8CCC(=O)NC8=O)cccc76)CC5)CC4)cc3F)CC2)cc1Cl [EAR187, N-((1r,4r)-4-(3-Chloro-4-cyanophenoxy)cyclohexyl)-4-(4-((4-(4-(2,4-dioxotetrahydropyrimidin-1(2H)-yl)-1H-indol-1-yl)piperidin-1-yl)methyl)piperidin-1-yl)-2-fluorobenzamide]"
6,≥ 50%,"N#Cc1ccc(O[C@H]2CC[C@H](NC(=O)c3ccc(N4CCC(CN5CCC(n6ccc7c(N8CCC(=O)NC8=O)c(F)ccc76)CC5)CC4)nn3)CC2)cc1Cl [EAR170, N-((1r,4r)-4-(3-Chloro-4-cyanophenoxy)cyclohexyl)-6-(4-((4-(4-(2,4-dioxotetrahydropyrimidin-1(2H)-yl)-5-fluoro-1H-indol-1-yl)piperidin-1-yl)methyl)piperidin-1-yl)pyridazine-3-carboxamide, hydrochloride]"
